Read-outs that look alike come from different tables or passages of the source.
How the values were obtained:
[1] = test system: fructose metabolism in mice; assay: Acute fructose feeding experiment in mice; type: in vivo; conditions: compound 10 mpk, oral fructose 1 g/kg
Method: The effect of test compounds on the fructose content in mice with high fructose intake was investigated.
All animals were acclimated for one week in an animal house, fed with normal chow and fasted for 16 hours before being given fructose.
1) The experiment began at −0.5 hr. A control group was given a certain volume of vehicle (a certain proportion of methylcellulose and Tween 80 in water), and an experimental group was given a certain dose of a solution of the compound (the administered volume was consistent with the vehicle).
2) 0.5 hour later and before administration of a fructose solution, a blood sample was collected at 0 hr, followed by oral administration of 1 g/kg of an aqueous fructose solution.
3) After the administration of fructose, blood samples were collected from saphenous vein of mice at 0.25, 0.5, 1, 2, 3 and 8 hr, and fructose concentration was analyzed by LC-MS/MS.

[2] = Pharmacokinetic evaluation in SD rats; type: in vivo; conditions: rat, plasma
Method: In vivo pharmacokinetics of compounds in SD rats were tested.
Pharmacokinetic profiles in rodents following intravenous and oral administration of the compounds were tested by standard protocols. In the experiment, candidate compounds were formulated as clear solutions or homogeneous suspensions, and were administered to rats by single intravenous injection (IV, 1 mpk) and oral administration (PO, 3 mpk). The vehicle for intravenous injection was a certain proportion of PEG400 in water, and the vehicle for oral administration was a certain proportion of methylcellulose and Tween 80 in water. Whole blood was collected, and plasma was prepared. Drug concentration was analyzed by LC-MS/MS, and pharmacokinetic parameters were calculated by Phoenix WinNonlin software.

[3] = target: CYP2C19 (Homo sapiens (Human), UniProt P33261); assay: Inhibitory activity on human liver microsomal cytochrome P450 isozymes; type: in vitro ADME; conditions: human liver microsomes
CYP2C19, sequence (P33261 whole entry): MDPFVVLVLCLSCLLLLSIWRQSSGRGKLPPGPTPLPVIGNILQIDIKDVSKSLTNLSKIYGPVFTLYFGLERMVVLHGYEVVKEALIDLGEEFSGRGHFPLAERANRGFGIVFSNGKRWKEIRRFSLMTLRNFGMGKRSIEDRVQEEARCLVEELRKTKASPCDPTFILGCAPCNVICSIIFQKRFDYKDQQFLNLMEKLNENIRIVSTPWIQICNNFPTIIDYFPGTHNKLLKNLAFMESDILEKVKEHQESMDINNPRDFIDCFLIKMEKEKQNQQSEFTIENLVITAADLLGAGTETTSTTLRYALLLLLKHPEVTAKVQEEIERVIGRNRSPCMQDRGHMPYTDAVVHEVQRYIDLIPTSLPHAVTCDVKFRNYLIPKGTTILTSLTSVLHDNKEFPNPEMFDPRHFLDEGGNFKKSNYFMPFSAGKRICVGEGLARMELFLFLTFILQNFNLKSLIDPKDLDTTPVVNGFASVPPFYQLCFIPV
Method: (§1) The inhibitory effect of test compounds on the activity of human hepatic microsomal cytochrome P450 isozymes (CYP1A2, CYP2C9, CYP2C19, CYP2D6 and CYP3A4) was determined.
(§2) First, the test compound (10 mM) was diluted in gradient to prepare working solutions (100×final concentration) with working solution concentrations: 5, 1.5, 0.5, 0.15, 0.05, 0.015, 0.005 mM, respectively, and at the same time, working solutions of each positive inhibitor of P450 isozymes (CYP1A2, CYP2C9, CYP2C19, CYP2D6 and CYP3A4) and its specific substrate mixture were prepared. Human liver microsomes frozen in a −80° C. refrigerator were thawed on ice, and diluted with PB (phosphate buffer) after all the human liver microsomes were dissolved, to prepare a working solution at a certain concentration (0.253 mg/mL). 20 μl substrate mixture was added to the reaction plate (20 μL PB was added to the Blank wells) while 158 μL human liver microsome working solution was added to the reaction plate which was placed on ice for later use. At this time, 2 μL of each concentration of the test compound (N=1) and the specific inhibitor (N=2) were added to the corresponding wells, and the corresponding organic solvents were added to the groups without inhibitors (the test compound or the positive inhibitor) as control samples (1:1 DMSO:MeOH for the test compound control sample, and 1:9 DMSO:MeOH for the positive control sample). After pre-incubation in 37° C. water bath for 10 min, 20 μL coenzyme factor (NADPH) solution was added to the reaction plate, and incubated in 37° C. water bath for 10 min. 400 μL cold acetonitrile solution (200 ng/mL Tolbutamide and Labetalol as the internal standard) was added to stop the reaction. The reaction plate was placed on a shaker and shaken for 10 min. The mixture was centrifuged at 4,000 rpm for 20 min, and 200 μl the supernatant was added to 100 μL water for sample dilution. Finally, the plate was sealed, shaken, mixed well and detected by LC/MS/MS.

[4] = target: CYP3A4 (Homo sapiens (Human), UniProt P08684); assay: as above; type: in vitro ADME; conditions: human liver microsomes
CYP3A4, sequence (P08684 whole entry): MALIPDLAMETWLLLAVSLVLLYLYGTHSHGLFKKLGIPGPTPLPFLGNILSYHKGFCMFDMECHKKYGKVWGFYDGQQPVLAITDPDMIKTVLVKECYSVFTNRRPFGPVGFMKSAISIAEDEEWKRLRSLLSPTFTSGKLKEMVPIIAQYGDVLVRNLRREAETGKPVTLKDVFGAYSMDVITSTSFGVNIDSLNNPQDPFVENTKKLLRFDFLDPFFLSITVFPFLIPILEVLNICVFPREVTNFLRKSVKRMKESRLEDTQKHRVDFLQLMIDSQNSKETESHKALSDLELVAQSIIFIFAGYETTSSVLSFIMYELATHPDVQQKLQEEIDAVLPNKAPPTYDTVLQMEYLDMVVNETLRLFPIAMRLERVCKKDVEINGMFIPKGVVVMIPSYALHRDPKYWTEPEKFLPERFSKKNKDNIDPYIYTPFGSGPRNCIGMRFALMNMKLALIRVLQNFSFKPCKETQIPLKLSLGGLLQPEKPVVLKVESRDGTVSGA
Method: as §1, §2

[5] = target: CYP2D6 (Homo sapiens (Human), UniProt P10635); assay: as above; type: in vitro ADME; conditions: human liver microsomes
CYP2D6, sequence (P10635 whole entry): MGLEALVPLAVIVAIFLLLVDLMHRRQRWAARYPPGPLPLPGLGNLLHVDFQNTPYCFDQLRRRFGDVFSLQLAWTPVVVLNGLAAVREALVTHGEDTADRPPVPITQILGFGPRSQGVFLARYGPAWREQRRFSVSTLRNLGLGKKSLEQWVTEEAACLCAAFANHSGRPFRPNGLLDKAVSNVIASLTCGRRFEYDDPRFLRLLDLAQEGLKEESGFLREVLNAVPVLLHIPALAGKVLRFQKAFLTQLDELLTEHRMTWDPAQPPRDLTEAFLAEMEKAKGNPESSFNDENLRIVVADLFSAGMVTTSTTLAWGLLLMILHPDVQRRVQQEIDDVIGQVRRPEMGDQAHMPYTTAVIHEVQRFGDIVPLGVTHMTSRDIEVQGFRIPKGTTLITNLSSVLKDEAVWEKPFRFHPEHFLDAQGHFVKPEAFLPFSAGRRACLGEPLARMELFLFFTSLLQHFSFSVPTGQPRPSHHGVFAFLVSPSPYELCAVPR
Method: as §1, §2

[6] = target: CYP2C9 (Homo sapiens (Human), UniProt P11712); assay: as above; type: in vitro ADME; conditions: human liver microsomes
CYP2C9, sequence (P11712 whole entry): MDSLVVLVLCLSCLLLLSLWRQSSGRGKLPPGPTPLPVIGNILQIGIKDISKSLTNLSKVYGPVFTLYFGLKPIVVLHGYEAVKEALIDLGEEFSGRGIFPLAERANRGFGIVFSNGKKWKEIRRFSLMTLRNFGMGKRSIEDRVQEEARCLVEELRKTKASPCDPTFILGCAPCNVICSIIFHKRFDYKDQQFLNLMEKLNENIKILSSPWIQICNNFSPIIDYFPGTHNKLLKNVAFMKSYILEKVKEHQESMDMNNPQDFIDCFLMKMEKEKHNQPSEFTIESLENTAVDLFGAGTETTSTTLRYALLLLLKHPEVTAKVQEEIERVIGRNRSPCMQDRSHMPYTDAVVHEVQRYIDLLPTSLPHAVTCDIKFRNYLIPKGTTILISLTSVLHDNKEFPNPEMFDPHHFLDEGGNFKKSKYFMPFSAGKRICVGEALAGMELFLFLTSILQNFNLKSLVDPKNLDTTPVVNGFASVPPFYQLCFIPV
Method: as §1, §2

[7] = Liver-blood ratio, tissue distribution in rats; type: in vivo, SD rats; conditions: SD, rat, 1 mg/kg, PO 1 mpk
Method: Tissue distribution of compounds in SD rats was tested.
In the experiment, candidate compounds were formulated as clear solutions and administered to rats in a single oral dose (PO, 1 mpk). The vehicle for oral administration was a certain proportion of methylcellulose and Tween 80 in water. Whole blood was collected at a certain time and plasma was prepared, and tissues were collected at the corresponding time and prepared into tissue homogenates. Drug concentration was analyzed by LC-MS/MS, and pharmacokinetic parameters were calculated by Phoenix WinNonlin software.

[8] = brain, read-out: Brain tissue concentration
[9] = brain/plasma, read-out: Brain-blood ratio
[10] = liver, read-out: Liver tissue concentration
[11] = liver/plasma, read-out: Liver-blood ratio
[12] = plasma, read-out: Plasma concentration

clearance ([2]; 1 mg/kg, IV 1 mpk, read-out: Clearance rate): 1.21 mL/min/kg
bioavailability ([2]; 3 mg/kg, IV 1 mpk, PO 3 mpk, read-out: Bioavailability F): 80%
AUC ([2]; 3 mg/kg, PO 3 mpk, read-out: Integral concentration AUC for PO): 64.5 µM·h
half-life ([2]; IV 1 mpk and PO 3 mpk study, read-out: Half-life T1/2 (converted)): 2.96 h
IC50 [3]: > 50 µM
IC50 [4]: > 50 µM
IC50 [5]: > 50 µM
IC50 [6]: > 50 µM
concentration at 1.5 h [7, 8]: 0.105 µM
concentration at 2 h [7, 8]: 0.148 µM
concentration at 6 h [7, 8]: 0.071 µM
Kp at 1.5 h [7, 9]: 0.022
Kp at 2 h [7, 9]: 0.019
Kp at 6 h [7, 9]: 0.023
concentration at 1.5 h [7, 10]: 4.42 µM
concentration at 2 h [7, 10]: 6.37 µM
concentration at 6 h [7, 10]: 3.9 µM
Kp at 1.5 h [7, 11]: 0.943
Kp at 2 h [7, 11]: 0.821
Kp at 6 h [7, 11]: 1.22
concentration at 1.5 h [7, 12]: 4.67 µM
concentration at 2 h [7, 12]: 7.75 µM
concentration at 6 h [7, 12]: 3.67 µM
SMILES: C[C@H]1CCN1c1nc(N2C[C@@H]3[C@@H](CC(=O)O)[C@@H]3C2)c2ccsc2n1 [WX004]
AUC of integral fructose concentration for dosed group [1]: 2194 nM·h
AUC of integral fructose concentration of dosed group/AUC of Integral fructose concentration of control group [1]: 5.0

Reference: patent publication US12534477B2, “Compound having KHK inhibitory effect” (HANGZHOU ZHONGMEIHUADONG PHARMACEUTICAL CO., LTD., priority 2019, dated 2026)
